Assay results as given in the Kinase Knowledgebase extract (Sharma et al. 2016).

The molecules below were run against CDK2 (human) (UniProt P24941) (assay: Enzyme Assay).

Compound	IC50
Cc1c(N[C@H]2CC[C@H](N)CC2)nc2ccnn2c1Nc1ccc(-c2ccc(O)cc2)cc1	< 100 µM
CCOc1ccc(Nc2c(C)c(N[C@H]3CC[C@H](N)CC3)nc3c(C(=O)Nc4cccnc4)cnn23)cc1	< 100 µM
CCc1c(N[C@H]2CC[C@H](N)CC2)nc2ccnn2c1Nc1cccc(Cl)c1	< 100 µM
Cc1c(N[C@H]2CC[C@H](N)CC2)nc2ccnn2c1Nc1cccc(OCc2cccc(Cl)c2)c1	< 100 µM
Cc1cc2cc(Nc3c(C)c(N[C@H]4CC[C@H](N)CC4)nc4ccnn34)ccc2[nH]1	< 100 µM
Cc1c(N[C@H]2CC[C@H](N)CC2)nc2ccnn2c1Nc1ccc(OCC2CCCCC2)cc1	< 100 µM
COc1ccccc1-c1ccc(Nc2c(C)c(N[C@H]3CC[C@H](N)CC3)nc3ccnn23)cc1	< 100 µM
Cc1c(NC2CCCNC2)nc2ccnn2c1Nc1ccc(I)cc1 (stereo not drawn)	< 100 µM
Cc1c(N[C@H]2CC[C@H](N)CC2)nc2ccnn2c1Nc1ccc(-c2ccoc2)cc1	< 100 µM
CCOc1ccc(-c2ccc(Nc3c(C)c(N[C@H]4CC[C@H](N)CC4)nc4ccnn34)cc2)cc1	< 100 µM
CCc1c(N[C@H]2CC[C@H](N)CC2)nc2ccnn2c1Nc1ccc(N2CCCCC2)cc1	< 100 µM
COc1ccc(Nc2c(C)c(N[C@H]3CC[C@H](N)CC3)nc3ccnn23)cc1	< 100 µM
Cc1c(N[C@H]2CC[C@H](N)CC2)nc2ccnn2c1Nc1ccc2cc[nH]c2c1	< 100 µM
N[C@H]1CC[C@H](Nc2nc3ccnn3c(Nc3ccc(F)c(Cl)c3)c2-c2ccccc2)CC1	< 100 µM
CCOC(=O)c1cccc(Nc2c(CC)c(N[C@H]3CC[C@H](N)CC3)nc3ccnn23)c1	< 100 µM
CCc1c(N[C@H]2CC[C@H](N)CC2)nc2ccnn2c1Nc1ccc(Br)cc1	< 100 µM
Cc1c(N[C@H]2CC[C@H](N)CC2)nc2ccnn2c1Nc1cccc(OCc2ccccc2)c1	< 100 µM

Further lines, results first:

IC50	Compound
< 100 µM	Cc1c(N[C@H]2CC[C@H](N)CC2)nc2ccnn2c1Nc1cccc(CO)c1
< 100 µM	Cc1c(N[C@H]2CC[C@H](N)CC2)nc2ccnn2c1Nc1cccc(OCc2ccccc2Cl)c1
< 100 µM	Cc1c(N[C@H]2CC[C@H](N)CC2)nc2ccnn2c1Nc1cccc2[nH]ccc12
< 100 µM	Cc1c(N[C@H]2CC[C@H](N)CC2)nc2ccnn2c1Nc1ccc(C(=O)NC2CCCC2)cc1
< 100 µM	CCOc1ccc(Nc2c(C)c(NC3CCCNC3)nc3c(C4CC4)cnn23)cc1 (stereo not drawn)
< 100 µM	Cc1c(N[C@H]2CC[C@H](N)CC2)nc2ccnn2c1Nc1ccc(-c2cccc(N)c2)cc1
< 100 µM	Cc1c(N[C@H]2CC[C@H](N)CC2)nc2ccnn2c1Nc1ccc(OCCc2ccncc2)cc1
< 100 µM	CCc1c(N[C@H]2CC[C@H](N)CC2)nc2ccnn2c1Nc1cccc(I)c1
< 100 µM	Cc1c(N[C@H]2CC[C@H](N)CC2)nc2ccnn2c1Nc1ccc(N2CCCCC2)cc1
< 100 µM	Cc1c(N[C@H]2CC[C@H](N)CC2)nc2ccnn2c1Nc1ccc(-c2cccc(O)c2)cc1
< 100 µM	COc1cccc(COc2cccc(Nc3c(C)c(N[C@H]4CC[C@H](N)CC4)nc4ccnn34)c2)c1
< 100 µM	CCOc1ccc(Nc2c(C)c(NC3CCCNC3)nc3c(C4CCCCC4)cnn23)cc1 (stereo not drawn)
< 100 µM	CCCCC(=O)c1cnn2c(Nc3ccc(OCC)cc3)c(C)c(N[C@H]3CC[C@H](N)CC3)nc12
< 100 µM	Cc1c(N[C@H]2CC[C@H](N)CC2)nc2ccnn2c1Nc1ccc(OCCn2ccnc2)cc1
< 100 µM	Cc1c(N[C@H]2CC[C@H](N)CC2)nc2ccnn2c1Nc1ccc(OCc2ccc(N)cc2)cc1
< 100 µM	CCOc1ccc(Nc2c(C)c(NC(C)(C)CO)nc3ccnn23)cc1
< 100 µM	CC1=[SH]c2cc(Nc3c(C)c(N[C@H]4CC[C@H](N)CC4)nc4ccnn34)ccc2N1
< 100 µM	Cc1c(N[C@H]2CC[C@H](N)CC2)nc2ccnn2c1Nc1ccc(-c2cccnc2)cc1
< 100 µM	CC(C)c1c(N[C@H]2CC[C@H](N)CC2)nc2ccnn2c1Nc1ccc(F)c(Cl)c1
< 100 µM	N[C@H]1CC[C@H](Nc2cc(Nc3ccc(F)c(Cl)c3)n3ncc(Cl)c3n2)CC1
< 100 µM	CCOc1cccc(Nc2cc(N[C@H]3CC[C@H](N)CC3)nc3c(C#N)cnn23)c1
